{"source": "ChEMBL document CHEMBL1221220", "about": "“Transport and signaling via the amino acid binding site of the yeast Gap1 amino acid transceptor” (Nat Chem Biol, 2009)", "key": {"[1]": {"test_system": "T1, General amino-acid permease GAP1 (Saccharomyces cerevisiae), P19145 [C397C]", "T1 sequence (whole entry)": "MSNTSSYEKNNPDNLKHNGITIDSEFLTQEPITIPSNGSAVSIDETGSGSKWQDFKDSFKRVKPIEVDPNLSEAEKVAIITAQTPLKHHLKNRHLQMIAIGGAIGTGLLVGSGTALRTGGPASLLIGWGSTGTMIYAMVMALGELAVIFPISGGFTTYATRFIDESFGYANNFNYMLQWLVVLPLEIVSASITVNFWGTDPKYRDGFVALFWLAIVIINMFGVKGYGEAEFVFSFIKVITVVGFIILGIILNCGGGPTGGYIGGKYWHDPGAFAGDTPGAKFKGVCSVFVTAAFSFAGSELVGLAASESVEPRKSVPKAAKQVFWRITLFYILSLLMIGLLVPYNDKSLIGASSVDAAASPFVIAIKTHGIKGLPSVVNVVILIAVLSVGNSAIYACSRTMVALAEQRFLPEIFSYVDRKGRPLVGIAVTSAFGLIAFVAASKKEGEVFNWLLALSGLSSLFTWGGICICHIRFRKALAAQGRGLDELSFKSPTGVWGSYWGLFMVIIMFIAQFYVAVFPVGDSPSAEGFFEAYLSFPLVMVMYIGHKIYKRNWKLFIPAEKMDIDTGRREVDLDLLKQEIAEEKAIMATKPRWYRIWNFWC", "test": "Induction of yeast Gap1 C397C mutant-mediated trehalose activation at 10 mM"}, "[2]": {"test_system": "T2, General amino-acid permease GAP1 (Saccharomyces cerevisiae), P19145 [T400C]", "T2 sequence (whole entry)": "T1 sequence (whole entry) with T400C", "test": "Activation of yeast Gap1 T400C mutant-mediated amino acid uptake at 10 mM"}, "[3]": {"test_system": "General amino-acid permease GAP1 (Saccharomyces cerevisiae), P19145 [V402C]", "sequence (P19145 whole entry V402C)": "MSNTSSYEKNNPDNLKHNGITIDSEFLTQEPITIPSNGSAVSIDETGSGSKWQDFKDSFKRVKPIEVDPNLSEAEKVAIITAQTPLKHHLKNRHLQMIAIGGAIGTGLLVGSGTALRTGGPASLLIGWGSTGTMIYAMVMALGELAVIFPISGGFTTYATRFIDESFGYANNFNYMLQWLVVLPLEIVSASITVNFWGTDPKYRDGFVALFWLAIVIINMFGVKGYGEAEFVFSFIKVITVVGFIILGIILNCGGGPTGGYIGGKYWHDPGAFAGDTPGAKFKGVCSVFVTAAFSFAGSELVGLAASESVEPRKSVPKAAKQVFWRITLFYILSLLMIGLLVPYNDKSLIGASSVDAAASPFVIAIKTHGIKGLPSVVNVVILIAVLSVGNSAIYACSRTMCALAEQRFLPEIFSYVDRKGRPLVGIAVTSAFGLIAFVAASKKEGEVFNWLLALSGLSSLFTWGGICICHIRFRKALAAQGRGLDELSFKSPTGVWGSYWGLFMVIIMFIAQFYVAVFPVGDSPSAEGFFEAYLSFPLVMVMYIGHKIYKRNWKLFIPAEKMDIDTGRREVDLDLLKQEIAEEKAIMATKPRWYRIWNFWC", "test": "Inhibition of yeast Gap1 V402C mutant-mediated trehalose activation at 10 mM"}, "[4]": {"test_system": "T3, General amino-acid permease GAP1 (Saccharomyces cerevisiae), P19145 [A393C]", "T3 sequence (whole entry)": "T1 sequence (whole entry) with A393C", "test": "Activation of yeast Gap1 A393C mutant-mediated amino acid uptake at 10 mM"}, "[5]": {"test_system": "T1, General amino-acid permease GAP1 (Saccharomyces cerevisiae), P19145 [C397C]", "test": "Activation of yeast Gap1 C397C mutant-mediated amino acid uptake at 10 mM"}, "[6]": {"test_system": "T4, General amino-acid permease GAP1 (Saccharomyces cerevisiae), P19145 [R399C]", "T4 sequence (whole entry)": "T1 sequence (whole entry) with R399C", "test": "Induction of yeast Gap1 R399C mutant-mediated amino acid uptake at 2 mM in presence of 10 mM MTSEA treated before compound addition"}, "[7]": {"test_system": "General amino-acid permease GAP1 (Saccharomyces cerevisiae), P19145 [V402C]", "test": "Inhibition of yeast Gap1 V402C mutant-mediated amino acid uptake at 10 mM"}, "[8]": {"test_system": "T1, General amino-acid permease GAP1 (Saccharomyces cerevisiae), P19145 [C397C]", "test": "Induction of yeast Gap1 C397C mutant-mediated amino acid uptake at 2 mM in presence of 10 mM MTSEA treated before compound addition"}, "[9]": {"target": "T5, General amino-acid permease GAP1 (Saccharomyces cerevisiae) (UniProt P19145)", "T5 sequence (whole entry)": "T1 sequence (whole entry)", "test": "Induction of nitrogen-starved wild type sigma1278b yeast Gap1-mediated amino acid uptake at 2 mM in presence of 10 mM MTSEA treated before compound addition"}}, "note": "Where a chain is given by its changes, count along the chain named. Active and inactive are the calls of the source. No cut-off for these calls is given here.", "data": [{"smiles": "NC(=O)NCCC[C@H](N)C(=O)O", "values": [{"measurement": "Activity", "setting": "[1]", "value": "inactive"}, {"measurement": "Activity", "setting": "[2]", "value": "inactive"}, {"measurement": "inhibition", "setting": "[3]", "value": "Active"}, {"measurement": "Activity", "setting": "[4]", "value": "inactive"}, {"measurement": "Activity", "setting": "[5]", "value": "inactive"}, {"measurement": "Activity", "setting": "[6]", "value": "Active"}, {"measurement": "inhibition", "setting": "[7]", "value": "Active"}, {"measurement": "Activity", "setting": "[8]", "value": "Active"}, {"measurement": "inhibition", "setting": "[9]", "value": "Active"}]}]}
